Measurements as given in US20140256771A1, “COMPOUNDS THAT MODULATE INTRACELLULAR CALCIUM” (CalciMedica, Inc., priority 2011, published 2014).
Read-outs that look alike come from different tables or passages of the source.

Key:
RBL-2H3 cells = experiment: Fluorescence-based assay of store-operated calcium entry in RBL-2H3 cells; format: cell-based, rat; set-up: key to RBL-2H3 (IC50, μmol): A < 0.6 μmol; 0.6 μmol ≦ B ≦ 1.2 μmol; C > 1.2 μmol; — = no fit; details: thapsigargin store depletion, 50% inhibition of Upslope; for IC50: Rattus norvegicus, RBL-2H3, read-out: RBL-2H3 (IC50, μmol)
Experimental: B. Fluorescence-based Assay of Store-Operated Calcium Entry in RBL-2H3Cells.
RBL-2H3 cells are obtained from ATCC and maintained in complete medium with 10% FBS at 37° C./6% CO2.
The day prior to performing the assay, RBL-2H3 cells are plated in 50 μL of complete medium in a 384 well plate. Cells are grown at 37° C./6% CO2 overnight and grow to 50-60% confluence by the next day. On the assay day, 1.5 μM Fluo-4-AM dye (Invitrogen) in complete medium is added and incubated for 1 hour at RT. Cells are washed twice in Ca^2+-free HBSS buffer and 35 μL Ca^2+-free HBSS buffer is added to each well. 10 μL of a test compound prepared in a Ca^2+-free HBSS solution at 4.5× of the desired concentration is added to a well and incubated for 5 minutes at RT. 10 μL of thapsigargin prepared in a Ca^2+-free HBSS solution at 5.5× of the desired concentration (5.5 uM) is added to each well and incubated for an additional 25 minutes. The initial baseline fluorescence signal is measured with a FLIPR^384 (Molecular Devices) plate reader. 5 μL of 12× calcium in HBSS (12 mM) is added and changes in cellular fluorescence are measured with the FLIPR^384 plate reader. In each well, the change in the fluorescent signal as a function of time due to calcium entry into the cell is determined by calculating the difference between the fluorescent signal measured 7 seconds after calcium addition and the initial baseline fluorescence signal at time zero (t=0). This parameter is designated Upslope. The IC50 value is calculated as the concentration at which 50% of the Upslope is inhibited.

Orai1/STIM1 = molecular target: T1, Orai1/STIM1 (Homo sapiens, UniProt Q96D31); experiment: Fluorescence-based assay of store-operated calcium entry in Orai1/STIM1 stable cells; format: cell-based; details: HEK-293 cells stably expressing human STIM1 and Orai1, 50% inhibition of Peak-Basal fluo-4 signal; for IC50: read-out: Orai1/STIM1 (IC50, μmol)
T1 construct: expressed in transfected cells; host or cells: HEK-293
T1 sequence (Q96D31 whole entry): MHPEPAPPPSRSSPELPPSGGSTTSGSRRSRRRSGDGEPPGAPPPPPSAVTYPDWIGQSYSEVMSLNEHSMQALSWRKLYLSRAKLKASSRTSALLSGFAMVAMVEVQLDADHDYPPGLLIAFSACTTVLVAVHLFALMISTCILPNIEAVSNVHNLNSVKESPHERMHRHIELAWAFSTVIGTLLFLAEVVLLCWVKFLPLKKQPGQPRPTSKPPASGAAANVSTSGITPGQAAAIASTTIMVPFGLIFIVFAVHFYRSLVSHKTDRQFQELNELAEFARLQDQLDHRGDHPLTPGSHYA
Experimental: A. Fluorescence-based Assay of Store-Operated Calcium Entry in Orai1/STIM1 Stable Cells.
Cells stably expressing recombinant human STIM1 and Orai1 are generated by transfecting a human Orai1 expression plasmid (pcDNA3.1-Orai1-cmyc) into HEK-293 cells stably overexpressing human STIM1 (Roos et al. 2005 JCB 169(3): 435-445). Colonies of cells stably expressing both STIM1 and Orai1 proteins are selected and then subcloned by limiting dilution. Cells were cultured at 37° C./6% CO2 in complete medium with 10% FBS and appropriate selection markers.
The day prior to performing the assay Orai1/STIM1 stable cells are plated in 50 μL of complete medium at 90-95% confluence in a 384 well plate. Cells are grown at 37° C./6% CO2 overnight. On the day of the assay, 1.5 μM fluo-4-AM (Invitrogen) in complete medium is added to the cells, which are then incubated for 1 hour at RT. Cells are washed once in Ca^2+-free HBSS (Hank's buffered saline solution) and 35 μl of Ca^2+-free HBSS is added to each well. Test compounds are added to wells in a 10 μL Ca^2+-free HBSS solution, prepared at 4.5× the desired final concentration, and incubated for 30 minutes at RT. The initial baseline fluorescence signal is then measured with a FLIPR^384 (Molecular Devices) plate reader. Calcium entry is initiated by adding 5 μl of 10× CaCl2 (10 mM) in HBSS, and changes in cellular fluorescence are measured with the FLIPR^384 plate reader. In each well, the magnitude of the fluorescence signal as a result of calcium entry into the cell is determined by calculating the difference between the peak fluorescence signal measured after calcium addition and the initial baseline fluorescence signal (designated Peak-Basal). IC50 values are typically calculated as the concentration that inhibited 50% of the Peak-Basal signal (Table A).

Compound | IC50 (RBL-2H3 cells; Table iii) | IC50 (Orai1/STIM1; Table iii) | IC50 (RBL-2H3 cells; Table iv) | IC50 (Orai1/STIM1; Table iv) | other results
Cn1nc(C(F)(F)F)cc1-c1ccc(NCc2ccccc2F)cc1F | < 600 nM | < 600 nM |  |  | 
Cc1cccc(F)c1CNc1ccc(-c2cc(C(F)(F)F)nn2C)c(F)c1 | < 600 nM | < 600 nM |  |  | 
Cc1cc2c(cc1-c1ccc(NCc3snnc3F)cc1)OC(F)(F)O2 | < 600 nM | 600 to 1200 nM |  |  | 
Cc1cc2c(cc1-c1ccc(NCc3c(F)cccc3F)cc1F)OC(F)(F)O2 | < 600 nM | > 1200 nM |  |  | 
Cc1cc2c(cc1-c1ccc(NCc3ccccc3F)cc1F)OC(F)(F)O2 | < 600 nM | > 1200 nM |  |  | 
Cc1cc2c(cc1-c1ccc(NCc3c(F)cncc3F)cc1F)OC(F)(F)O2 | < 600 nM | 600 to 1200 nM |  |  | 
Cn1nc(C(F)(F)F)cc1-c1ccc(NCc2c(F)ccc(F)c2F)cc1F | < 600 nM | < 600 nM |  |  | 
Cc1ccccc1CNc1ccc(-c2cc(C(F)(F)F)nn2C)c(F)c1 | < 600 nM | < 600 nM |  |  | 
Cn1nc(C(F)(F)F)cc1-c1ccc(NCc2c(F)cc(F)cc2F)cc1 | < 600 nM | < 600 nM |  |  | 
Cn1nc(C(F)(F)F)cc1-c1ccc(NCc2c(F)ccc(F)c2F)cc1 | < 600 nM | < 600 nM |  |  | 
Cn1nc(C(F)(F)F)cc1-c1ccc(NCc2c(Cl)cnn2C)cc1 | < 600 nM | 600 to 1200 nM |  |  | 
Cc1cc(C(F)(F)F)nn1-c1ccc(NCc2ccccc2F)cc1 | < 600 nM | < 600 nM |  |  | 
Cc1cc(C(F)(F)F)nn1-c1ccc(NCc2ccc(F)cc2F)cc1 | < 600 nM | 600 to 1200 nM |  |  | 
Cc1cc(C(F)(F)F)nn1-c1ccc(NCc2c(F)cncc2F)cc1 | < 600 nM | 600 to 1200 nM |  |  | 
Cc1cc(C(F)(F)F)nn1-c1ccc(NCc2c(F)ccc(F)c2F)cc1 | < 600 nM | < 600 nM |  |  | 
Cc1cc(C(F)(F)F)nn1-c1ccc(NCc2c(F)cc(F)cc2F)cc1 | < 600 nM | < 600 nM |  |  | 

Compound | IC50 (RBL-2H3 cells; Table iii) | IC50 (Orai1/STIM1; Table iii) | IC50 (RBL-2H3 cells; Table iv) | IC50 (Orai1/STIM1; Table iv) | other results
Cc1nc(C(F)(F)F)cn1-c1ccc(NCc2ccccc2F)cc1F | < 600 nM | < 600 nM |  |  | 
Cc1nc(C(F)(F)F)cn1-c1ccc(NCc2c(F)cccc2F)cc1F | < 600 nM | < 600 nM |  |  | 
Cn1nc(C(F)(F)F)cc1-c1ccc(NC(=O)c2c(F)cncc2F)cc1F |  |  | < 600 nM | < 600 nM | 
Cn1nc(C(F)(F)F)cc1-c1ccc(NC(=O)c2ccc(F)cc2F)cc1F |  |  | < 600 nM | < 600 nM | 
Cn1nc(C(F)(F)F)cc1-c1ccc(NC(=O)c2c(F)cc(F)cc2F)cc1F |  |  | < 600 nM | < 600 nM | 
Cn1nc(C(F)(F)F)cc1-c1ccc(NC(=O)c2ccncc2F)cc1F |  |  | < 600 nM | < 600 nM | 
Cn1nc(C(F)(F)F)cc1-c1ccc(NC(=O)c2cncc(F)c2)cc1F |  |  | 600 to 1200 nM | < 600 nM | 
Cn1nc(C(F)(F)F)cc1-c1ccc(NC(=O)c2ccccc2F)c(F)c1 |  |  |  |  | RBL-2H3 (IC50, μmol) (RBL-2H3 cells; Table iv): —; Orai1/STIM1 (IC50, μmol) (Orai1/STIM1; Table iv): Max inh. <50%
Cc1nc(C(F)(F)F)cn1-c1ccc(NC(=O)c2c(F)cc(F)cc2F)cc1F |  |  | < 600 nM | > 1200 nM | 
Cc1nc(C(F)(F)F)cn1-c1ccc(NC(=O)c2c(F)cncc2F)cc1F |  |  | 600 to 1200 nM | > 1200 nM | 
Cc1ccccc1C(=O)Nc1ccc(-c2cn(C(F)F)nc2C)c(F)c1 |  |  | 600 to 1200 nM | < 600 nM | 
Cc1nn(C(F)F)cc1-c1ccc(NC(=O)c2ccccc2F)cc1F |  |  | 600 to 1200 nM | < 600 nM | 
Cc1nn(C(F)F)cc1-c1ccc(NC(=O)c2c(F)cc(F)cc2F)cc1F |  |  | < 600 nM | < 600 nM | 
CCn1nc(C(F)(F)F)cc1-c1ccc(NC(=O)c2ccccc2F)cc1F |  |  | < 600 nM | < 600 nM | 
Cc1cc(F)ccc1C(=O)Nc1ccc(-c2cc(C(F)F)nn2C)c(F)c1 |  |  | < 600 nM | < 600 nM | 
CCn1nc(C(F)(F)F)cc1-c1ccc(NC(=O)c2c(F)cc(F)cc2F)cc1F |  |  | < 600 nM | 600 to 1200 nM | 

Further lines, with some results ahead:

IC50 (RBL-2H3 cells; Table iii) | IC50 (Orai1/STIM1; Table iii) | IC50 (RBL-2H3 cells; Table iv) | IC50 (Orai1/STIM1; Table iv) | Compound | other results
< 600 nM | < 600 nM |  |  | Cc1cc(C(F)(F)F)nn1-c1ccc(NCc2c(F)cccc2F)cc1 | 
 |  | < 600 nM | 600 to 1200 nM | Cc1cc(C(F)(F)F)nn1-c1ccc(NC(=O)c2c(F)cc(F)cc2F)cc1 | 
 |  | < 600 nM | > 1200 nM | Cc1nc(C(F)(F)F)cn1-c1ccc(NC(=O)c2ccccc2F)cc1F | 
 |  | 600 to 1200 nM | > 1200 nM | Cc1nc(C(F)(F)F)cn1-c1ccc(NC(=O)c2c(F)cccc2F)cc1F | 
 |  | < 600 nM | > 1200 nM | Cc1nc(C(F)(F)F)cn1-c1ccc(NC(=O)c2c(F)ccc(F)c2F)cc1F | 
 |  | < 600 nM | 600 to 1200 nM | Cc1nc(C(F)(F)F)cn1-c1ccc(NC(=O)c2ccccc2F)cc1 | 
 |  | < 600 nM | > 1200 nM | Cc1nc(C(F)(F)F)cn1-c1ccc(NC(=O)c2c(F)cccc2F)cc1 | 
 |  | < 600 nM | > 1200 nM | Cc1nc(C(F)(F)F)cn1-c1ccc(NC(=O)c2c(F)cc(F)cc2F)cc1 | 
 |  | < 600 nM | > 1200 nM | Cc1nc(C(F)(F)F)cn1-c1ccc(NC(=O)c2c(F)ccc(F)c2F)cc1 | 
 |  | 600 to 1200 nM | 600 to 1200 nM | Cc1nn(C(F)F)cc1-c1ccc(NC(=O)c2ccccc2F)cc1 | 
 |  | < 600 nM | < 600 nM | Cc1nn(C(F)F)cc1-c1ccc(NC(=O)c2c(F)cccc2F)cc1 | 
 |  | < 600 nM | < 600 nM | Cc1nn(C(F)F)cc1-c1ccc(NC(=O)c2c(F)cc(F)cc2F)cc1 | 
 |  | < 600 nM | 600 to 1200 nM | Cc1cccc(F)c1C(=O)Nc1ccc(-c2cn(C(F)F)nc2C)cc1 | 
 |  | < 600 nM | < 600 nM | Cc1nn(C(F)F)cc1-c1ccc(NC(=O)c2c(F)ccc(F)c2F)cc1 | 
 |  | < 600 nM | < 600 nM | Cc1cccc(F)c1C(=O)Nc1ccc(-c2cn(C(F)F)nc2C)c(F)c1 | 
 |  | < 600 nM | < 600 nM | Cc1nn(C(F)F)cc1-c1ccc(NC(=O)c2c(F)cccc2F)cc1F | 
 |  | < 600 nM | < 600 nM | CCn1nc(C(F)(F)F)cc1-c1ccc(NC(=O)c2ccccc2F)cc1 | 
 |  | < 600 nM | < 600 nM | CCn1nc(C(F)(F)F)cc1-c1ccc(NC(=O)c2c(F)cccc2F)cc1 | 
 |  | < 600 nM | < 600 nM | CCn1nc(C(F)(F)F)cc1-c1ccc(NC(=O)c2c(F)cccc2F)cc1F | 
 |  | < 600 nM | < 600 nM | Cc1ccccc1C(=O)Nc1ccc(-c2nc(C(F)(F)F)sc2C)cc1 | 
 |  | < 600 nM | < 600 nM | Cc1sc(C(F)(F)F)nc1-c1ccc(NC(=O)c2ccccc2F)cc1 | 
 |  | < 600 nM | < 600 nM | Cc1cccc(F)c1C(=O)Nc1ccc(-c2nc(C(F)(F)F)sc2C)cc1 | 
 |  | < 600 nM | < 600 nM | Cc1sc(C(F)(F)F)nc1-c1ccc(NC(=O)c2c(F)cccc2F)cc1 | 
 |  | < 600 nM | < 600 nM | Cc1sc(C(F)(F)F)nc1-c1ccc(NC(=O)c2c(F)cc(F)cc2F)cc1 | 
 |  | < 600 nM | < 600 nM | Cc1cc(F)ccc1C(=O)Nc1ccc(-c2cc(C(F)(F)F)nn2C)c(F)c1 | 
 |  | < 600 nM | 600 to 1200 nM | Cc1cc(F)ccc1C(=O)Nc1ccc(-n2nc(C(F)(F)F)cc2C)c(F)c1 | 
 |  | < 600 nM | > 1200 nM | Cc1cc(F)ccc1C(=O)Nc1ccc(-n2cc(C(F)(F)F)nc2C)c(F)c1 | 
